The text below walks through data of US20090048196A1, “Membrane receptor for retinol binding protein mediates cellular uptake of vitamin A, methods of use and compositions” (THE REGENTS OF THE UNIVERSITY OF CALIFORNIA, priority 2007, published 2009).

What all share (assay type): cell-based
Series [1] relates to WiDr human colon adenocarcinoma cells. Description: Vitamin A uptake activity of WiDr cells from 3H-retinol/RBP. The note with it: 100 nM RNAi oligo, 65 hrs. On the procedure: (§1) Production of ^3H-retinol loaded RBP and retinol uptake assay based on ^3H-retinol/RBP: Apo-RBP was prepared from holo-RBP as described (3). Radioactive retinol (15-^3H(N)-retinol) was purchased from American Radiolabeled Chemicals Inc. Ten micrograms apo-His-RBP was incubated with 150 pmol retinol (3 μCi) at 24° C. overnight. Radiolabeled holo-His-RBP was bound to Ni-NTA resin and the resin was washed extensively with 10 mM imidazole in PBS. Radiolabeled His-RBP was eluted with 100 mM imidazole in PBS. For the vitamin A uptake assay, transfected or untransfected cells grown on 12-well or 24-well cell culture plates were washed once with PBS and incubated with the ^3H-retinol/RBP diluted in SFM for various lengths of time. The reactions were stopped by washing the cells with PBS and solubilizing cells in 1% Triton X-100 in PBS. Radioactivity was measured with a scintillation counter.
Effects of metabolic inhibitors on vitamin A uptake and endocytosis: To test the effect of metabolic inhibitors, cells were pretreated with metabolic inhibitors in serum free medium (50 mM 2-deoxyglucose and 5 mM sodium azide) at 37° C. for 30 min before incubation with ^3H-retinol/RBP for 45 min at 37° C. in the continued presence of the metabolic inhibitors. The slight increase in activity for MI-treated cells as shown in FIGS. 4C and 4D is reproducible. Endocytosis assay based on horseradish peroxidase (HRP) was performed similarly as described. Cells (80-100% confluence) were washed once with PBS and then incubated in SFM with or without metabolic inhibitors for 30 min at 37° C. […]
RNAi transfection and retinoic acid treatment of human WiDr colon adenocarcinoma cells: WiDr cells (American Type Culture Collection) were grown in Earle's balanced salt media with 10% FBS at 37° C. in a 95% air/5% CO2 humidified incubator. […] Semi-Quantitative PCR was carried out for 24 cycles at 95° C. for 30 sec (denaturation), 63° C. for 30 sec (annealing), and 72° C. for 30 min (extension). cDNA synthesized from 40 ng of total RNA was used for each reaction. […]

A further series concerns human STRA6. Description: STRA6 expression in WiDr cells (semi-quantitative PCR). The note with it: 100 nM RNAi oligo, 65 hrs. On the procedure: RNAi transfection and retinoic acid treatment of human WiDr colon adenocarcinoma cells: WiDr cells (American Type Culture Collection) were grown in Earle's balanced salt media with 10% FBS at 37° C. in a 95% air/5% CO2 humidified incubator. Human STRA6 RNAi oligo sequences were 5′-[…]-3′ (S-1) (SEQ ID NO:3), 5′-[…]-3′ (S-2) (SEQ ID NO:4); and 5′-[…]-3′ (S-3) (SEQ ID NO:5). Stealth™ negative control RNAi with medium GC (Invitrogen) was used for a negative control. WiDr cells were transfected with 100 nM RNAi oligos using DharmaFect1 (Dharmacon) according to the manufacture's protocol. WiDr Cells were split one day before RNAi transfection and cells were incubated with RNAi oligos for 65 hrs after transfection. Retinoic acid treatment was applied for 55 hours. RNA was isolated from WiDr cells using the RNeasy kit (Qiagen). Reverse transcription was performed with Invitrogen's SuperScriptIII First-Strand Synthesis System. Semi-Quantitative PCR was carried out for 24 cycles at 95° C. for 30 sec (denaturation), 63° C. for 30 sec (annealing), and 72° C. for 30 min (extension). cDNA synthesized from 40 ng of total RNA was used for each reaction. Primers used for PCR to detect human STRA6 were 5′-[…]-3′ (human STRA6 forward primer (SEQ ID NO:6)), 5′-[…]-3′ (human STRA6 reverse primer (SEQ ID NO:7)).

The subject of series [2] is primary bovine RPE culture. Nature of the series: Vitamin A uptake activity of primary bovine RPE culture from holo-RBP. To be noted: 100 nM RNAi oligo, transfected twice, 72 h each. On the procedure:
as §1
Primary culture and RNAi transfection of bovine RPE cells: Primary cultures of RPE cells were derived from adult bovine eyes obtained from a local slaughterhouse. After the removal of vitreous and retina, the posterior half of the eye was incubated in 2% Dispase solution (Boehringer Mannheim) for 2 h. Sheets of RPE cells were then collected and washed with Hanks' Balanced salt solution (Irvine Scientific). The RPE cells were exposed to 0.05% Trypsin and 0.02% EDTA solution for 5 minutes at room temperature. The RPE cells were suspended in CEM replacement medium containing 10% calf serum and 1% penicillin-streptomycin as described previously (12), and the cells were then seeded at a density of 3×10^5 cells/cm^2 onto 12 mm millicell-PCF culture wells with a pore size of 0.45 um (Millipore Corp.). The RPE cells were maintained at 37° C. in a 5% CO2 incubator for 10 days before RNAi transfection. […] Semi-quantitative PCR was carried out for 26 cycles at 95° C. for 30 sec (denaturation), 60° C. for 30 sec (annealing), and 72° C. for 30 min (extension). cDNA synthesized from 32 ng of total RNA was used for each reaction. […]

A further series deals with bovine STRA6. Nature of the series: STRA6 expression in primary bovine RPE culture (semi-quantitative PCR). To be noted: 100 nM RNAi oligo, transfected twice, 72 h each. On the procedure:
Primary culture and RNAi transfection of bovine RPE cells: Primary cultures of RPE cells were derived from adult bovine eyes obtained from a local slaughterhouse. After the removal of vitreous and retina, the posterior half of the eye was incubated in 2% Dispase solution (Boehringer Mannheim) for 2 h. Sheets of RPE cells were then collected and washed with Hanks' Balanced salt solution (Irvine Scientific). The RPE cells were exposed to 0.05% Trypsin and 0.02% EDTA solution for 5 minutes at room temperature. The RPE cells were suspended in CEM replacement medium containing 10% calf serum and 1% penicillin-streptomycin as described previously (12), and the cells were then seeded at a density of 3×10^5 cells/cm^2 onto 12 mm millicell-PCF culture wells with a pore size of 0.45 um (Millipore Corp.). The RPE cells were maintained at 37° C. in a 5% CO2 incubator for 10 days before RNAi transfection. For RNAi transfection, bovine RPE cells were washed once with PBS and incubated in fresh DMEM/10% FBS media. Cells were transfected with 100 nM RNAi oligos (Stealth RNAi, Invitrogen) using DharmaFect1 according to manufacturer's protocol and incubated at 37° C. for 72 h. Cells were then transfected under the same conditions and incubated for another 72 h. RNAi oligo sequences used for this assay were 5′-[…]-3′ (S-4) (SEQ ID NO:8), 5′-[…]-3′ (S-5) (SEQ ID NO:9) and 5′-[…]-3′ (S-6) (SEQ ID NO:10). Semi-quantitative PCR was carried out for 26 cycles at 95° C. for 30 sec (denaturation), 60° C. for 30 sec (annealing), and 72° C. for 30 min (extension). cDNA synthesized from 32 ng of total RNA was used for each reaction. Primers used for PCR reaction to detect bovine STRA6 are 5′-[…]-3′ (forward primer (SEQ ID NO:11)), 5′-[…]-3′ (reverse primer (SEQ ID NO:12)).

With “S-1: Human STRA6 RNAi oligo 5′-UGAAGCUCAUCCAACAGAAUAUGGC-3′ (SEQ ID NO:3) (listed as RNA, chemistry not given here)”, the “Vitamin A uptake activity” value in series [1] is given as “suppresses”. For the same substance, the STRA6 expression entry in the series on human STRA6 is “suppresses”.
Regarding “S-2: Human STRA6 RNAi oligo 5′-UAGAUGCAGUGUCUCAAGCAGACGC-3′ (SEQ ID NO:4) (listed as RNA, chemistry not given here)”, the “Vitamin A uptake activity” value in series [1] is “suppresses”. Besides, the STRA6 expression entry in the series on human STRA6 is recorded as “suppresses”.
“S-3: Human STRA6 RNAi oligo 5′-UGAGUAAGCAGGACAAGACCAAGGC-3′ (SEQ ID NO:5) (listed as RNA, chemistry not given here)”: the “Vitamin A uptake activity” value in series [1] is given as “suppresses”. For the same substance, the STRA6 expression result with human STRA6 is on record as “suppresses”.
Turning to “S-4: Bovine STRA6 RNAi oligo 5′-CCGUCUACAUUCCACAACAAGGAUU-3′ (SEQ ID NO:8) (listed as RNA, chemistry not given here)”, the “Vitamin A uptake activity” value in series [2] is on record as “suppresses”. Moreover, in the series with bovine STRA6, the STRA6 expression entry is “suppresses”.
“S-5: Bovine STRA6 RNAi oligo 5′-GGCUACCACACAUACUGCAACUUCU-3′ (SEQ ID NO:9) (listed as RNA, chemistry not given here)”: the “Vitamin A uptake activity” value in series [2] is listed as “suppresses”. Moreover, the STRA6 expression result in the series on bovine STRA6 was “suppresses”.
As to “S-6: Bovine STRA6 RNAi oligo 5′-GAGGAUUCCUAUGACAGCUGGUACA-3′ (SEQ ID NO:10) (listed as RNA, chemistry not given here)”, the “Vitamin A uptake activity” value in series [2] is on record as “suppresses”. Also, in the series on bovine STRA6, the STRA6 expression result is reported as “suppresses”.
